Data from patent publication US4864023A, “Pyrido(3,2,1-IJ)-1,3,4-benzoxadiazine derivatives” (priority 1988, dated 1989).
In brackets after ≈: the same amount, converted by molar mass. Read-outs that look alike come from different tables or passages of the source.

How the values were obtained:
[1] = tested on: Bacillus subtilis PCI 219; experiment: in vitro antibacterial activity, standard agar dilution method; type: cell-based; settings: PCI219, aerobic, read-out: minimum inhibitory concentration (MIC)
[2] = tested on: Staphylococcus aureus FDA 209P JC-1; experiment: as above; type: cell-based; settings: FDA209P, read-out: minimum inhibitory concentration (MIC)
[3] = tested on: Staphylococcus aureus NR 2855; experiment: as above; type: cell-based
[4] = tested on: Staphylococcus epidermidis IFO 12993; experiment: as above; type: cell-based; settings: IFO12993, aerobic, read-out: minimum inhibitory concentration (MIC)
[5] = tested on: Staphylococcus epidermidis NR 2942; experiment: as above; type: cell-based; settings: NR2942, aerobic, read-out: minimum inhibitory concentration (MIC)
[6] = tested on: Enterococcus faecalis NR 2943; experiment: as above; type: cell-based; settings: NR2943, aerobic, read-out: minimum inhibitory concentration (MIC)
[7] = tested on: Citrobacter freundii IFO 12681; experiment: as above; type: cell-based; settings: IFO12681, aerobic, read-out: minimum inhibitory concentration (MIC)
[8] = tested on: Enterobacter cloacae NR 2946; experiment: as above; type: cell-based; settings: NR2946, aerobic, read-out: minimum inhibitory concentration (MIC)
Escherichia coli NR 2630 = experiment: as above; type: cell-based; settings: NR2630; Escherichia coli NR 2630; aerobic; agar dilution; read-out: minimum inhibitory concentration (MIC)
[9] = tested on: Klebsiella pneumoniae FDA PCI 602; experiment: as above; type: cell-based; settings: FDAPCI602, aerobic, read-out: minimum inhibitory concentration (MIC)
[10] = tested on: Bordetella bronchiseptica ATCC 4617; experiment: as above; type: cell-based; settings: ATCC4617, aerobic, read-out: minimum inhibitory concentration (MIC)
[11] = tested on: Proteus vulgaris OX19 ATCC 6898; experiment: as above; type: cell-based; settings: ATCC6898, aerobic, read-out: minimum inhibitory concentration (MIC)
[12] = tested on: Pseudomonas aeruginosa A3; experiment: as above; type: cell-based; settings: aerobic, read-out: minimum inhibitory concentration (MIC)
[13] = tested on: Pseudomonas aeruginosa NR 2950; experiment: as above; type: cell-based; settings: NR2950, aerobic, read-out: minimum inhibitory concentration (MIC)
[14] = tested on: Pseudomonas stutzeri IFO 12695; experiment: as above; type: cell-based; settings: Stutzerimonas stutzeri, IFO12695, aerobic, read-out: minimum inhibitory concentration (MIC)
[15] = tested on: Bacteroides fragilis NR 2579; experiment: as above; type: cell-based; settings: NR2579, anaerobic, read-out: minimum inhibitory concentration (MIC)
[16] = tested on: Bacteroides fragilis NR 2582; experiment: as above; type: cell-based; settings: NR2582, anaerobic, read-out: minimum inhibitory concentration (MIC)
[17] = tested on: Bacteroides fragilis NR 2583; experiment: as above; type: cell-based; settings: NR2583, anaerobic, read-out: minimum inhibitory concentration (MIC)
[18] = tested on: Bacteroides fragilis NR 2584; experiment: as above; type: cell-based; settings: NR2584, anaerobic, read-out: minimum inhibitory concentration (MIC)
[19] = tested on: Bacteroides distasonis NR 2578; experiment: as above; type: cell-based; settings: Parabacteroides distasonis, NR2578, anaerobic, read-out: minimum inhibitory concentration (MIC)
[20] = tested on: Bacteroides thetaiotaomicron NR 2588; experiment: as above; type: cell-based; settings: NR2588, anaerobic, read-out: minimum inhibitory concentration (MIC)
[21] = tested on: Bifidobacterium adolescentis ATCC 15703; experiment: as above; type: cell-based; settings: ATCC15703, anaerobic, read-out: minimum inhibitory concentration (MIC)
[22] = tested on: Clostridium perfringens NR 2612; experiment: microbe, parasite or virus in culture; type: cell-based; settings: NR2612, read-out: minimum inhibitory concentration (MIC)
[23] = tested on: Clostridium moniliforme ATCC 25546; experiment: in vitro antibacterial activity, standard agar dilution method; type: cell-based; settings: ATCC25546, anaerobic, read-out: minimum inhibitory concentration (MIC)
[24] = tested on: Peptococcus prevotii ATCC 9321; experiment: as above; type: cell-based; settings: Anaerococcus prevotii, ATCC9321, anaerobic, read-out: minimum inhibitory concentration (MIC)
[25] = tested on: Peptostreptococcus anaerobius NR 2743; experiment: as above; type: cell-based; settings: NR2743, anaerobic, read-out: minimum inhibitory concentration (MIC)
[26] = tested on: Propionibacterium acnes ATCC 11828; experiment: as above; type: cell-based; settings: Cutibacterium acnes, ATCC11828, anaerobic, read-out: minimum inhibitory concentration (MIC)
[27] = tested on: Myoplasma hominis NR 2952; experiment: as above; type: cell-based; settings: read-out: minimum inhibitory concentration (MIC)
Escherichia coli ML4707 = experiment: in vivo therapeutic efficacy, lethal systemic infection in mice; settings: Escherichia coli, 120 h, E. coli ML4707 i.p. infection, ICR mice, mortality 5 days, read-out: 50% effective dose (ED50)
Experimental: The in vivo antibacterial activities of pyrido[3,2,1-ij]-1,3,4-benzoxadiazine derivatives prepared by Example 5, Example 30, Example 65 and Example 66 as mentioned below were tested against lethal infection of Escherichia coli ML4707, Pseudomonas aeruginosa 4au542 and Streptococcus pneumoniae 6-001. ICR mice weighing about 20 g were infected by intraperitoneal injection of a corresponding bacterial suspension. The test compounds were administered orally or subcutaneously at the time of injection. […] The respective 50% effective dose (ED50, mg/kg) which protects 50% of the animals from death caused by infection, is shown in Table 3.

[28] = acute toxicity by oral administration; settings: mouse, in vivo, po
From the text: The acute toxicity of these compounds was examined by oral administration in ICR mice.

[29] = ML4707, po, p.o. at time of injection
[30] = ML4707, sc, s.c. at time of injection

SMILES | MIC [1] | MIC [4] | MIC [5] | MIC [6] | MIC [7] | MIC [8] | MIC (Escherichia coli NR 2630) | MIC [9] | MIC [10] | MIC [11] | MIC [12] | MIC [13] | MIC [14] | MIC [15] | MIC [16] | MIC [17] | MIC [18] | MIC [19] | MIC [20] | MIC [21] | other results
CN1COc2c(N3CCC(N)C3)c(F)cc3c(=O)c(C(=O)O)cn1c23 (centres unmarked) [Example 30, 10-(3-amino-1-pyrrolidinyl)-9-fluoro-3-methyl-7-oxo-2,3-dihydro-7H-pyrido[3,2,1-ij]-1,3,4-benzoxadiazine-6-carboxylic acid] | 0.025 µg/mL (≈ 0.0718 µM) | 0.2 µg/mL (≈ 0.574 µM) | 0.2 µg/mL (≈ 0.574 µM) | 3.13 µg/mL (≈ 8.99 µM) | 0.013 µg/mL (≈ 0.0373 µM) | 0.013 µg/mL (≈ 0.0373 µM) | 0.0065 µg/mL (≈ 0.0187 µM) | 0.1 µg/mL (≈ 0.287 µM) | 1.56 µg/mL (≈ 4.48 µM) | 0.0065 µg/mL (≈ 0.0187 µM) | 0.05 µg/mL (≈ 0.144 µM) | 0.2 µg/mL (≈ 0.574 µM) | 0.0033 µg/mL (≈ 0.00947 µM) | 1.56 µg/mL (≈ 4.48 µM) | 0.39 µg/mL (≈ 1.12 µM) | 0.1 µg/mL (≈ 0.287 µM) | 0.78 µg/mL (≈ 2.24 µM) | 0.78 µg/mL (≈ 2.24 µM) | 0.78 µg/mL (≈ 2.24 µM) | 0.1 µg/mL (≈ 0.287 µM) | MIC ([2]; Staphylococcus aureus FDA 209P JC-1, aerobic, agar dilution): 0.05 µg/mL (≈ 0.144 µM); MIC ([3]; Staphylococcus aureus, NR2855, read-out: minimum inhibitory concentration (MIC)): 0.39 µg/mL (≈ 1.12 µM); MIC [22]: 0.1 µg/mL (≈ 0.287 µM); MIC [23]: 0.1 µg/mL (≈ 0.287 µM); MIC [24]: 0.39 µg/mL (≈ 1.12 µM); MIC [25]: 0.013 µg/mL (≈ 0.0373 µM); MIC [26]: 0.78 µg/mL (≈ 2.24 µM); MIC [27]: 0.1 µg/mL (≈ 0.287 µM); ED50 (Escherichia coli ML4707; [29]): 0.62 mg/kg; ED50 (Escherichia coli ML4707; [30]): 0.1 mg/kg; LD50 [28]: > 2000 mg/kg
CN1CCN(c2c(F)cc3c(=O)c(C(=O)O)cn4c3c2OCN4C)CC1 [Example 5, 9-fluoro-3-methyl-10-(4-methyl-1-piperazinyl)-7-oxo-2,3-dihydro-7H-pyrido[3,2,1-ij]-1,3,4-benzoxadiazine-6-carboxylic acid] | 0.05 µg/mL (≈ 0.138 µM) | 0.39 µg/mL (≈ 1.08 µM) | 0.39 µg/mL (≈ 1.08 µM) | 3.13 µg/mL (≈ 8.64 µM) | 0.013 µg/mL (≈ 0.0359 µM) | 0.025 µg/mL (≈ 0.069 µM) | 0.013 µg/mL (≈ 0.0359 µM) | 0.1 µg/mL (≈ 0.276 µM) | 0.2 µg/mL (≈ 0.552 µM) | 0.013 µg/mL (≈ 0.0359 µM) | 0.2 µg/mL (≈ 0.552 µM) | 0.78 µg/mL (≈ 2.15 µM) | 0.025 µg/mL (≈ 0.069 µM) | 3.13 µg/mL (≈ 8.64 µM) | 0.78 µg/mL (≈ 2.15 µM) | 0.39 µg/mL (≈ 1.08 µM) | 0.78 µg/mL (≈ 2.15 µM) | 0.78 µg/mL (≈ 2.15 µM) | 1.56 µg/mL (≈ 4.31 µM) | 0.39 µg/mL (≈ 1.08 µM) | MIC ([2]; Staphylococcus aureus): 0.39 µg/mL (≈ 1.08 µM); MIC ([3]; NR2855, Staphylococcus aureus NR 2855, aerobic, agar dilution, read-out: minimum inhibitory concentration (MIC)): 0.2 µg/mL (≈ 0.552 µM); MIC [22]: 0.39 µg/mL (≈ 1.08 µM); MIC [23]: 0.78 µg/mL (≈ 2.15 µM); MIC [24]: 1.56 µg/mL (≈ 4.31 µM); MIC [25]: 0.39 µg/mL (≈ 1.08 µM); MIC [26]: 0.78 µg/mL (≈ 2.15 µM); MIC [27]: 0.1 µg/mL (≈ 0.276 µM); ED50 (Escherichia coli ML4707; [29]): 0.11 mg/kg; ED50 (Escherichia coli ML4707; [30]): 0.06 mg/kg; LD50 [28]: > 2000 mg/kg
